Laboratory results as given in patent US8809010B2, “Method for prophylactic treatment of alzheimer's disease using inhibitors of glutaminyl cyclase and glutamate cyclases” (Probiodrug AG, priority 2003, dated 2014).
Like-named read-outs stand apart in the source and are kept apart here. Bridge positions count the residues as written; N and C are the ends. Ends that are not written are not given here. Peptide text beside a SMILES is read from it. Gln(NMe) = glutamine with N-methylated side-chain amide

Assays:
human QC [1] = target: T1, human QC (Homo sapiens, UniProt Q16769); assay: Continuous spectrophotometric QC assay (glutamate dehydrogenase coupled), substrate kinetics; assay type: biochemical; conditions: for Ki* (mM): for substrate inhibition;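 for all read-outs here: initial rates read on a microplate reader at 30 °C, with enzyme activity quantified against an ammonia calibration curve under the same assay conditions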
T1 construct: The cDNA of the mature QC starting with codon 38 was fused in frame with the plasmid encoded 6× histidine tag; 6xHis; made in house; host or cells: Pichia pastoris X33 (pPICZαB, secreted); also E. coli M15 (pQE-31)
Procedure: The initial velocities were evaluated and the enzymatic activity was determined from a standard curve of ammonia under assay conditions. All samples were measured at 30° C., using either the [sequence]luor Plus or the Sunrise (both from TECAN) reader for microplates. Kinetic data was evaluated using GraFit software.

human QC [2] = target: T1, human QC; assay: QC inhibitor assay (fluorometric, H-Gln-AMC / H-Gln-βNA, pyroglutamyl aminopeptidase coupled); assay type: biochemical
human QC [3] = target: T1, human QC; assay: Qualitative substrate conversion (MALDI-TOF / fluorometric); assay type: biochemical; set-up: key to substrate conversion, determined qualitatively: *: determined qualitatively by MALDI-TOF experiments; conditions: for substrate conversion, determined qualitatively: Human QC, MALDI-TOF
Procedure: Matrix-assisted laser desorption/ionization mass spectrometry was carried out using the Hewlett-Packard G2025 LD-TOF System with a linear time of flight analyzer. […] Samples (5 μl) were mixed with equal volumes of the matrix solution. For matrix solution we used DHAP/DAHC, prepared by solving 30 mg 2′,6′-dihydroxyacetophenone (Aldrich) and 44 mg diammonium hydrogen citrate (Fluka) in 1 ml acetonitrile/0.1% TFA in water (1/1, v/v). A small volume (≈1 μl) of the matrix-analyte-mixture was transferred to a probe tip and immediately evaporated in a vacuum chamber (Hewlett-Packard G2024A sample prep accessory) to ensure rapid and homogeneous sample crystallization.
In order to further investigate the specificity and selectivity of the QCs, peptides were synthesized comprising either a modified N-terminal glutaminyl residue or a modified amino acid in the second position. […] Due to the cyclization of the glutaminyl residue or its analog, respectively, a mass difference of the substrate and the product of catalysis is detected. In cases of ammonia liberation of one mole per mole of substrate, the conversion was also analyzed quantitatively using the spectrophotometric assay.

human QC [4] = target: T1, human QC; assay: Enzyme inactivation/reactivation procedures; assay type: biochemical
human QC [5] = target: T1, human QC; assay: Long-term Glu1-cyclization of Aβ-derived peptides by recombinant human QC, MALDI-TOF; assay type: biochemical; conditions: for glutamate-containing peptide as QC-substrate: pH 5.2 and 6.5
Procedure: For long-term testing of Glu^1-cyclization, Aβ-derived peptides were incubated in 100 μl 0.1 M sodium acetate buffer, pH 5.2 or 0.1 M Bis-Tris buffer, pH 6.5 at 30° C. Peptides were applied in 0.5 mM [Aβ3-11a] or 0.15 mM [Aβ3-21a] concentrations, and 0.2 U QC was added all 24 hours. In case of Aβ3-21a, the assays contained 1% DMSO. At different times, samples were removed from the assay tube, peptides extracted using ZipTips (Millipore) according to the manufacturer's recommendations, mixed with matrix solution (1:1 v/v) and subsequently the mass spectra recorded. Negative controls did either contain no QC or heat deactivated enzyme.
The QC-catalyzed formation of [pGlu^3]Aβ3-11a and [pGlu^3]Aβ3-21a was investigated at pH 5.2 and 6.5, respectively. If the QC-inhibitor benzimidazole was added to the solution before starting the assay by addition of QC, substrate conversion resulting in [pGlu^3]Aβ3-11a or [pGlu^3]Aβ3-21a was suppressed (FIGS. 15E and F). If QC was boiled before addition, formation of the pGlu-peptides was negligible (FIGS. 15A and B).

human QC [6] = target: T1, human QC; conditions: cited from earlier work
mammalian QC = mammalian QC (Bos taurus, UniProt Q28120); conditions: cited from earlier work
[7] = recombinant human QC, absence of DMSO
[8] = recombinant human QC, buffer containing 1% DMSO

T1 sequence (Q16769 29-361): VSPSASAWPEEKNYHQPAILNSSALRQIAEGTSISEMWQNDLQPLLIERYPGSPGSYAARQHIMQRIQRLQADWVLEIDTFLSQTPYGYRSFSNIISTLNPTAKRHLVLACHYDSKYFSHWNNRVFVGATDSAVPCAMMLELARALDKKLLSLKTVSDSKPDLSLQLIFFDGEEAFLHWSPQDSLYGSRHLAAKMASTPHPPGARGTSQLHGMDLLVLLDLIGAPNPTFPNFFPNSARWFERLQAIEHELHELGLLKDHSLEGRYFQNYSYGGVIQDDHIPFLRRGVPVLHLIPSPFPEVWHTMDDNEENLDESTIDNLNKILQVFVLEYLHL
Chain of mammalian QC (Q28120 29-361): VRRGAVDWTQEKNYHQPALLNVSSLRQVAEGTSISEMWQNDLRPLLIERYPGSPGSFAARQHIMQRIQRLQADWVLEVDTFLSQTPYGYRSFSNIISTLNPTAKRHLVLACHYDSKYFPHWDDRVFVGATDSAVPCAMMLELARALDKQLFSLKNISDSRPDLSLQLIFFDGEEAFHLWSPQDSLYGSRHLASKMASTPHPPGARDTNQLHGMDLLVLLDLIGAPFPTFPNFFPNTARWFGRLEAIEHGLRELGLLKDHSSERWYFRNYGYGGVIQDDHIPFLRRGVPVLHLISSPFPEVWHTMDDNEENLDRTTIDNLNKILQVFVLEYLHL

## NC(=O)CC[C@H](N)C(=O)N[C@@H](Cc1ccc(O)cc1)C(=O)O [H-Gln-Tyr-OH] (H-Gln-Tyr-OH)
Human QC [1]; Human QC
  kcat: 94 ± 1 s⁻¹
  Ki* (mM): n.i.

## CC(C)[C@H](NC(=O)[C@@H](N)CCC(N)=O)C(=O)O [H-Gln-Val-OH] (H-Gln-Val-OH)
Human QC [1]; Human QC
  kcat: 17.2 ± 0.1 s⁻¹
  Ki* (mM): n.i.

## COC(=O)CC[C@H](N)C(=O)N[C@@H](Cc1ccccc1)C(=O)N[C@@H](CCCCN)C(=O)N[C@@H](CCCNC(=N)N)C(=O)N[C@@H](CC(C)C)C(=O)N[C@@H](C)C(N)=O [H-Glu(OMe)-Phe-Lys-Arg-Leu-Ala-NH2] (H-E(OMe)FKRLA-NH2)
Human QC [2]
  inhibition of human QC: not inhibited

## COC(=O)CC[C@H](N)C(=O)Nc1ccc2ccccc2c1 [H-Glu(OMe)-βNA]
Human QC [3]
  conversion by human QC: None of these compounds were converted

## NCCc1c[nH]cn1 [L-Histamine]
Human QC [2]
  inhibition of human QC: about one order of magnitude smaller compared to its acetylated counterpart

## O=S(=O)([O-])[O-].[Zn+2] [ZnSO4]
Human QC [4]; 0.5 mM metal ion, 0.5 mM EDTA
  restoration of QC activity after inactivation: Near-total restoration

## NC(=O)CC[C@H](N)C(=O)N[C@@H](CCC(=O)O)C(=O)N1CCC[C@H]1C(N)=O [[Gln^1]-FPP] (H-Gln-Glu-Pro-NH2)
Human QC [1]; Human QC
  kcat: 69.6 ± 0.3 s⁻¹

## NC(=O)CC[C@H](N)C(=O)N[C@@H](Cc1c[nH]cn1)C(=O)N1CCC[C@H]1C(N)=O [[Gln^1]-TRH] (H-Gln-His-Pro-NH2)
Human QC [1]; Human QC
  kcat: 82.8 ± 1.2 s⁻¹

## c1ccc2[nH]cnc2c1 [benzimidazole]
Human QC [5]; 5 mM inhibitor, pH 5.2 / 6.5
  formation of [pGlu^3]Aβ3-11a or [pGlu^3]Aβ3-21a in presence of inhibitor: suppressed

## O=C(O)c1cccc(C(=O)O)n1 [dipicolinic acid]
Human QC [4]; extensive dialysis against 5 mM chelator
  inactivation of human QC: almost completely inactivated
Human QC [6]
  inhibition of human QC: inhibited

## c1c[nH]cn1 [imidazole]
Human QC [6]
  inhibition of human QC: inhibited

## EFRHDSGYE-NH2 [Aβ3-11a]
Human QC [5]
  glutamate-containing peptide as QC-substrate: can also serve as QC-substrates

## EFRHDSGYEVHHQKLVFFA-NH2 [Aβ3-21a]
Human QC [5]
  glutamate-containing peptide as QC-substrate: can also serve as QC-substrates

## H-EFKRLA-NH2 [H-Glu-Phe-Lys-Arg-Leu-Ala-NH2]
Human QC [2]
  inhibition of human QC: not inhibited

## H-Gln(NMe)-Phe-Lys-Ala-Glu-NH2 ({Gln(NMe)}-FKAE-NH2)
Human QC [2]
  inhibition of human QC: not detected
Human QC [3]
  conversion by human QC: No substrate conversion was observed

## H-Gln-cyclo(Nε-Lys-Arg-Pro-Ala-Gly-Phe) (H-QKRPAGF; lactam 2-C; SMILES C[C@@H]1NC(=O)[C@@H]2CCCN2C(=O)[C@H](CCCNC(=N)N)NC(=O)[C@@H](NC(=O)[C@@H](N)CCC(N)=O)CCCCNC(=O)[C@H](Cc2ccccc2)NC(=O)CNC1=O)
Human QC [1]; Human QC
  kcat: 22.8 ± 0.6 s⁻¹

## H-QAAAA-NH2 [H-Gln-Ala-Ala-Ala-Ala-NH2]
Human QC [1]; Human QC
  kcat: 60.5 ± 0.7 s⁻¹

## H-QAASAA-NH2 [H-Gln-Ala-Ala-Ser-Ala-Ala-NH2]
Human QC [1]; Human QC
  kcat: 55.3 ± 1.6 s⁻¹

## QFRHDSGYE-NH2 [[Gln^3]Aβ3-11a]
Human QC [1]; [7]
  Km: 87 ± 3 µM
  kcat (s^−1): 55 ± 1^# s^−1
Human QC [1]; [8]
  Km: 155 ± 4 µM
  kcat: 41.4 ± 0.4 s⁻¹

## QFRHDSGYEVHHQKLVFFA-NH2 [[Gln^3]Aβ3-21a]
Human QC [1]; [8]
  kcat: 62 ± 3 s⁻¹

## [Gln^3]-glucagon (3-29): QC substrate
Human QC [1]; [8]
  Km: 19 ± 1 µM
  kcat: 10.0 ± 0.2 s⁻¹
Human QC [3]
  substrate conversion, determined qualitatively: *

## [Gln^5]-substance P (5-11): QC substrate (QQFFGLM; ends and bridges not checked)
Human QC [3]
  substrate conversion, determined qualitatively: *

## phenylimidazole
Human QC [2]
  inhibition of human QC: inactive under the experimental conditions

## reduced 6-methylpterin
Mammalian QC
  inhibition of mammalian QC: Inhibition
